Test results: ChEMBL document CHEMBL6115022, “The Heterogeneous Kinetic Origins of the Binding Properties of Orthosteric Ligands at Heteromeric Nicotinic Acetylcholine Receptors” (J Med Chem, 2025)

Tests used:
[1] = target: T1, Neuronal acetylcholine receptor; alpha3/beta4 (Rattus norvegicus) (UniProt P04757+P12392); assay: Displacement of [3H]epibatidine from rat alpha3beta4 nAChR extracted from HEK293 cell membrane assessed as residence time incubated for 60 to 120 mins by liquid scintillation counting method; assay type: cell membranes; details: filed as agonist, time lower 60.0 min, time upper […]
[2] = target: T1, Neuronal acetylcholine receptor; alpha3/beta4 (Rattus norvegicus); assay: Displacement of [3H]epibatidine from rat alpha3beta4 nAChR extracted from HEK293 cell membrane assessed as association binding constant (Kon) incubated for 60 to 120 mins by liquid scintillation counting method; assay type: cell membranes; details: filed as agonist, time lower 60.0 min, time upper […]
[3] = target: T1, Neuronal acetylcholine receptor; alpha3/beta4 (Rattus norvegicus); assay: Displacement of [3H]epibatidine from rat alpha3beta4 nAChR extracted from HEK293 cell membrane assessed as dissociation binding constant (Koff) incubated for 60 to 120 mins by liquid scintillation counting method; assay type: cell membranes; details: filed as agonist, time lower 60.0 min, time upper […]
[4] = target: T2, Neuronal acetylcholine receptor; alpha3/beta4 (Rattus norvegicus, UniProt P04757+P12392); assay: Displacement of [3H]epibatidine from rat alpha3beta4 nAChR extracted from HEK293 cell membrane assessed as inhibition constant incubated for 60 to 120 mins by liquid scintillation counting method; assay type: cell membranes
[5] = Selectivity index, ratio of Ki for displacement of [3H]epibatidine from rat alpha3beta4 nAChR extracted from HEK293 cell membrane to Ki for displacement of [3H]epibatidine from human alpha4beta2 nAChR extracted from HEK293 cell membrane
[6] = target: T3, Neuronal acetylcholine receptor; alpha4/beta2 (Homo sapiens, UniProt P17787+P43681); assay: Displacement of [3H]epibatidine from human alpha4beta2 nAChR extracted from HEK293 cell membrane assessed as dissociation binding constant (Koff) incubated for 240 mins by liquid scintillation counting method; assay type: cell membranes
[7] = target: T2, Neuronal acetylcholine receptor; alpha3/beta4; assay: Displacement of [3H]epibatidine from rat alpha3beta4 nAChR extracted from HEK293 cell membrane assessed as dissociation constant incubated for 60 to 120 mins by liquid scintillation counting method; assay type: cell membranes
[8] = target: T3, Neuronal acetylcholine receptor; alpha4/beta2; assay: Displacement of [3H]epibatidine from human alpha4beta2 nAChR extracted from HEK293 cell membrane assessed as association binding constant (Kon) incubated for 240 mins by liquid scintillation counting method; assay type: cell membranes
[9] = target: T3, Neuronal acetylcholine receptor; alpha4/beta2; assay: Displacement of [3H]epibatidine from human alpha4beta2 nAChR extracted from HEK293 cell membrane assessed as dissociation constant incubated for 240 mins by liquid scintillation counting method; assay type: cell membranes
[10] = target: T3, Neuronal acetylcholine receptor; alpha4/beta2; assay: Displacement of [3H]epibatidine from human alpha4beta2 nAChR extracted from HEK293 cell membrane assessed as residence time incubated for 240 mins by liquid scintillation counting method; assay type: cell membranes
[11] = target: T3, Neuronal acetylcholine receptor; alpha4/beta2; assay: Displacement of [3H]epibatidine from human alpha4beta2 nAChR extracted from HEK293 cell membrane assessed as inhibition constant incubated for 240 mins by liquid scintillation counting method; assay type: cell membranes
[12] = target: T3, Neuronal acetylcholine receptor; alpha4/beta2; assay: Displacement of [3H]epibatidine from human alpha4beta2 nAChR extracted from HEK293 cell membrane assessed as fold increase in […] binding constant (Koff) incubated for 240 mins by liquid scintillation counting method relative to (+)-DHbetaE; assay type: cell membranes; details: filed as antagonist
[13] = target: T3, Neuronal acetylcholine receptor; alpha4/beta2; assay: Displacement of [3H]epibatidine from human alpha4beta2 nAChR extracted from HEK293 cell membrane assessed as fold increase in association binding constant (Kon) incubated for 240 mins by liquid scintillation counting method relative to (+)-DHbetaE; assay type: cell membranes; details: filed as antagonist
[14] = Selectivity index, ratio of K(on) for displacement of [3H]epibatidine from human alpha4beta2 nAChR extracted from HEK293 cell membrane to K(on) for displacement of [3H]epibatidine from rat alpha3beta4 nAChR extracted from HEK293 cell membrane
[15] = Selectivity index, ratio of K(off) for displacement of [3H]epibatidine from human alpha4beta2 nAChR extracted from HEK293 cell membrane to K(off) for displacement of [3H]epibatidine from rat alpha3beta4 nAChR extracted from HEK293 cell membrane

T2 sequence (P04757 whole entry): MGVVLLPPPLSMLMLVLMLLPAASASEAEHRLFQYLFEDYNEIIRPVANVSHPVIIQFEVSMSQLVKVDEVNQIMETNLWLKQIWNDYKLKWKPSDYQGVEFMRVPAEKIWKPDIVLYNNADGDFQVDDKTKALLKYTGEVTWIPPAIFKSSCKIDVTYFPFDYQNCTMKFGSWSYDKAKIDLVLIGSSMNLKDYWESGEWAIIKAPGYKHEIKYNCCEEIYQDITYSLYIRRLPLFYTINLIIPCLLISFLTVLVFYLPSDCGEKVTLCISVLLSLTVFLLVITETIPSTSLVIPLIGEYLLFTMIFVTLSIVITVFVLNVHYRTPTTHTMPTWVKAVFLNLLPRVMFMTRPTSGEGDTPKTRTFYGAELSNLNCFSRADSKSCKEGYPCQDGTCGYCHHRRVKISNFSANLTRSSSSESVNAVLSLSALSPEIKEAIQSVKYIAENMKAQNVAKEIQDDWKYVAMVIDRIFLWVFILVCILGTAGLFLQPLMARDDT
T2 sequence (P12392 whole entry): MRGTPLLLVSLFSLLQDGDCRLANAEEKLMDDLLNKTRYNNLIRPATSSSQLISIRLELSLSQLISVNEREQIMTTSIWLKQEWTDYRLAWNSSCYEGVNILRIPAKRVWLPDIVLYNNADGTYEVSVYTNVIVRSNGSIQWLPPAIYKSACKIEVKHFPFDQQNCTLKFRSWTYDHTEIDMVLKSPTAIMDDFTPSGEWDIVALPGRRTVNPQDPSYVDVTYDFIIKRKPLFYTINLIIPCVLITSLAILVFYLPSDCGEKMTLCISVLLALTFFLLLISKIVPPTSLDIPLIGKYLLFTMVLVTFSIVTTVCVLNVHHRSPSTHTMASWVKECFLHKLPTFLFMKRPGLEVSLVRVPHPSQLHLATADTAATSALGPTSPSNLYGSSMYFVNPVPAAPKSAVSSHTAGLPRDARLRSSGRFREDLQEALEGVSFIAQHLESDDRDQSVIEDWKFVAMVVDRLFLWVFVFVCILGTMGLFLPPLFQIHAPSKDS
T3 sequence (P17787 whole entry): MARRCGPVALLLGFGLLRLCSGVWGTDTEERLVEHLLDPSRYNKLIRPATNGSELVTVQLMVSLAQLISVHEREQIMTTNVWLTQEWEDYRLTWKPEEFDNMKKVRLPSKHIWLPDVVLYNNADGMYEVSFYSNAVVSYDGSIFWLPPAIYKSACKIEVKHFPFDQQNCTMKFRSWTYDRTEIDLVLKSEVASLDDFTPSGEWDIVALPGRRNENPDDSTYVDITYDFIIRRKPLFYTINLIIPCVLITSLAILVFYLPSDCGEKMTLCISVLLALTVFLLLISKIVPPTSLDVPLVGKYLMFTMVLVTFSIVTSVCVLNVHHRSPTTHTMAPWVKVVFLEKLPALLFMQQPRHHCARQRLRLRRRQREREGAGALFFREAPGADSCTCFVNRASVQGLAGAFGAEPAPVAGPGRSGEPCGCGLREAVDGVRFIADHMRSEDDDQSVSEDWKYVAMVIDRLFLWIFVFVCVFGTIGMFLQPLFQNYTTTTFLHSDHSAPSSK
T3 sequence (P43681 whole entry): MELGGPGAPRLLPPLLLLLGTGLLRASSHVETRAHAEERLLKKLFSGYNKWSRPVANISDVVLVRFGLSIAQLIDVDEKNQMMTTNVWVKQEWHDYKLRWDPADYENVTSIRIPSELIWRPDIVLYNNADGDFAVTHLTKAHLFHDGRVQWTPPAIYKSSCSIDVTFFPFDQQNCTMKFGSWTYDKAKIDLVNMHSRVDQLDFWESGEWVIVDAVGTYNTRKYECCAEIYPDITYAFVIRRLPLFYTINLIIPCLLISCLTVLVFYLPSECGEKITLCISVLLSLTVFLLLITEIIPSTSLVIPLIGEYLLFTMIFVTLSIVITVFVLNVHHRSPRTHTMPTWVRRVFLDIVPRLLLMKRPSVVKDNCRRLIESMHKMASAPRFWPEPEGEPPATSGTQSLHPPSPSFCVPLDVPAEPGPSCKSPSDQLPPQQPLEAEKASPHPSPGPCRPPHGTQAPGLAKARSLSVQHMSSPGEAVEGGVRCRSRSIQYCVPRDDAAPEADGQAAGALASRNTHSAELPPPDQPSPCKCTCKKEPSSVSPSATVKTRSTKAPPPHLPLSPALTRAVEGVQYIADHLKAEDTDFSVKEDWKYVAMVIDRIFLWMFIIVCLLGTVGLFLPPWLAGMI

Row | Compound | TIME [1] | K [2] | K [3] | Ki [4] | Ratio Ki [5] | K ([6]; filed as agonist) | Kd [7] | K ([8]; filed as agonist) | Kd [9] | TIME ([10]; filed as agonist) | Ki [11] | Ratio [12] | K ([6]; filed as antagonist) | Ratio [13] | K ([8]; filed as antagonist) | TIME ([10]; filed as antagonist) | Ratio [14] | Ratio [15]
1 | O=c1cccc2n1C[C@@H]1CNC[C@H]2C1 [CYTISINICLINE] | 0.075 h | 33300 M⁻¹ s⁻¹ | 0.24 min⁻¹ | 110 nM | 150 | 0.05 min⁻¹ | 150 nM | 4.33e+06 M⁻¹ s⁻¹ | 0.21 nM | 0.367 h | 0.2 nM |  |  |  |  |  |  | 
2 | CCOc1cncc(/C=C/CCNC)c1 | 0.0283 h | 0.064 10^-3/nM/min | 0.77 min⁻¹ | 25000 nM | 7000 | 0.57 min⁻¹ | 12000 nM | 4.83e+06 M⁻¹ s⁻¹ | 1.7 nM | 0.0417 h | 0.8 nM |  |  |  |  |  |  | 
3 | CO[C@H]1CC=C2CCN3CCc4ccc(O)cc4[C@]23C1 |  |  |  |  |  |  |  |  | 2.9 nM |  | 3.1 nM | 13 | 0.12 min⁻¹ | 130 | 750000 M⁻¹ s⁻¹ | 0.15 h |  | 
4 | C[N+](C)(C)CCOC(N)=O [CARBAMOYLCHOLINE] | 0.06 h | 0.31 10^-3/nM/min | 0.33 min⁻¹ | 2000 nM | 8 | 0.25 min⁻¹ | 1500 nM | 16700 M⁻¹ s⁻¹ | 200 nM | 0.09 h | 56 nM |  |  |  |  |  |  | 
5 | CO[C@H]1CC=C2CCN3CCC4=C(CC(=O)OC4)[C@]23C1 |  |  |  |  |  |  |  |  |  |  |  |  | 0.01 min⁻¹ |  | 0.3 10^-3/nM/min | 1.87 h |  | 
6 | CN1CCC[C@H]1c1cccnc1 | 0.0683 h | 33300 M⁻¹ s⁻¹ | 0.3 min⁻¹ |  |  | 0.27 min⁻¹ |  | 3.83e+06 M⁻¹ s⁻¹ |  | 0.0683 h |  |  |  |  |  |  |  | 
7 | Cc1ncccc1OC[C@@H]1CCCN1 [POZANICLINE] | 0.04 h | 0.03 10^-3/nM/min | 0.44 min⁻¹ | 10000 nM |  | 0.23 min⁻¹ | 17000 nM | 517000 M⁻¹ s⁻¹ |  | 0.0783 h |  |  |  |  |  |  |  | 
8 | Clc1ccc(C2CC3CCC2N3)cn1 (racemic) | 0.103 h | 2.17e+07 M⁻¹ s⁻¹ | 0.17 min⁻¹ |  |  | 0.012 min⁻¹ |  | 2.17e+07 M⁻¹ s⁻¹ |  | 1.4 h |  |  |  |  |  |  |  | 
9 | OCCCCC#Cc1cncc(OC[C@@H]2CCN2)c1 | 0.0467 h | 0.2 10^-3/nM/min | 0.39 min⁻¹ | 2200 nM | 7000 | 0.004 min⁻¹ | 2200 nM | 1.12e+07 M⁻¹ s⁻¹ | 0.006 nM | 4.5 h | 0.017 nM |  |  |  |  |  | 3000 | 100
